In brackets after ≈: the same amount, converted by molar mass.
Key:
Type in all cases: cell-based
S. aureus ATCC 13709 = test: MIC, S. aureus ATCC 13709; details: for MIC: Staphylococcus aureus
Procedure: (§1) The MIC assays are carried out in 150 μL volume in duplicate in 96-well clear flat-bottom plates. The bacterial suspension from an overnight culture growth in appropriate medium is added to a solution of test compound in 4% DMSO in water. Final bacterial inoculum is approximately 10^5-10^6 CFU/well. […] Both ampicillin and tetracycline are used as antibiotic-positive controls in each screening assay for S. pyogenes, E. coli imp-, E. coli, S. aureus, E. faecalis, K. pneumoniae and P. vulgaris. Ciprofloxacin is used as an antibiotic positive control in each screening assay for P. aeruginosa.
(§2) The following compounds were prepared using methods illustrated in the previous examples. The compounds were also examined in standard bacterial assays against E. Coli, S. Aureus, P. aurginosa, K. pneumoniae, P. vulgaris, and A. baumannii to determine activities. Each of the bacterial cultures that are available from ATCC (www.atcc.org) is identified by its ATCC number. A. baumannii is gentamicin sensitive Acinetobacter baumannii #2 from Walter Reed.

E. coli ATCC 25922 = test: MIC, E. coli ATCC 25922; details: for MIC: Escherichia coli
Procedure: as §1, §2

P. aurginosa ATCC 29248 = test: MIC, P. aurginosa ATCC 29248
Procedure: as §1, §2

P. vulgaris ATCC 8427 = test: MIC, P. vulgaris ATCC 8427; details: for MIC: Proteus vulgaris
Procedure: as §1, §2

[1] = system: gentamicin sensitive Acinetobacter baumannii #2 from Walter Reed; test: MIC, A. baumannii WReed 2; details: for MIC: Acinetobacter baumannii
Procedure: as §1, §2

K. pneumoniae ATCC 10031 = test: MIC, K. pneumoniae ATCC 10031; details: for MIC: Klebsiella pneumoniae
Procedure: as §1, §2

P. aurginosa ATCC 25416 = test: MIC, P. aurginosa ATCC 25416
Procedure: as §1, §2

S. Aureus = test: MIC, S. Aureus; details: for MIC S. Aureus: Example 109
Method in brief: (§3)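 Broth microdilution in duplicate, 150 μL: overnight-culture bacteria were added to compound in 4% DMSO in water. Final inoculum was about 10^5–10^6 CFU/well.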

E. Coli = test: MIC, E. Coli; details: for MIC E. Coli.: Example 109
Method in brief: as §3

Compound	MIC S. aureus ATCC 13709 (S. aureus ATCC 13709; Example 111) [µM]	MIC E. coli ATCC 25922 (E. coli ATCC 25922; Example 111) [µM]	MIC P. aurginosa ATCC 29248 (P. aurginosa ATCC 29248; Example 111) [µM]	MIC P. vulgaris ATCC 8427 (P. vulgaris ATCC 8427; Example 111) [µM]	MIC A. baumannii WReed 2 ([1]; Example 111) [µM]	MIC K. pneumoniae ATCC 10031 (K. pneumoniae ATCC 10031; Example 111) [µM]	MIC P. aurginosa ATCC 25416 (P. aurginosa ATCC 25416; Example 111) [µM]	MIC (S. aureus ATCC 13709; ATCC13709, Example 110) [µM]	MIC (E. coli ATCC 25922; ATCC25922, Example 110) [µM]	MIC (P. aurginosa ATCC 29248; Example 110) [µM]	MIC (P. vulgaris ATCC 8427; ATCC8427, Example 110) [µM]	MIC ([1]; Example 110) [µM]	MIC (K. pneumoniae ATCC 10031; ATCC10031, Example 110) [µM]	MIC (P. aurginosa ATCC 25416; Example 110) [µM]	MIC S. aureus ATCC 13709 (S. aureus ATCC 13709; Example 110) [µM]	MIC E. coli ATCC 25922 (E. coli ATCC 25922; Example 110) [µM]	MIC P. aurginosa ATCC 29248 (P. aurginosa ATCC 29248; Example 110) [µM]	MIC P. vulgaris ATCC 8427 (P. vulgaris ATCC 8427; Example 110) [µM]	MIC A. baumannii WReed 2 ([1]; Example 110)	MIC K. pneumoniae ATCC 10031 (K. pneumoniae ATCC 10031; Example 110) [µM]	also measured
NCC1OC(OC2C(CO)OC(OC3C(O)C(N)CC(N)C3OC3OC(CNCCc4cccc(C(F)(F)F)c4)C(O)C(O)C3N)C2O)C(N)C(O)C1O (centres unmarked) [Compound 15u]	0.3 to 0.6	1.3 to 2.5	>40	>40	10 to 20	0.6 to 1.3	>40														
NCC[C@H](O)C(=O)N[C@@H]1C[C@H](N)[C@@H](O[C@H]2O[C@H](CO)[C@@H](O)[C@H](O)[C@H]2N)[C@H](O[C@@H]2O[C@H](CO)[C@@H](O[C@H]3O[C@@H](CN)[C@@H](O)[C@H](O)[C@H]3N)[C@H]2OCCNCCc2ccccc2)[C@H]1O [Compound 46a, N-1-haba-2″-O-phenylethylaminoethyl paromomycin]								0.6 to 1.2 (≈ 0.518 to 1.04 µg/mL)	0.6 to 1.3 (≈ 0.518 to 1.12 µg/mL)	1.3 to 2.5 (≈ 1.12 to 2.16 µg/mL)	0.6 to 1.3 (≈ 0.518 to 1.12 µg/mL)	0.6 to 1.3 (≈ 0.518 to 1.12 µg/mL)	< 0.6	0.6 to 1.3 (≈ 0.518 to 1.12 µg/mL)							MIC (S. aureus ATCC 13709; ATCC13709, Example 111): 0.2 to 0.3 µM (≈ 0.173 to 0.259 µg/mL); MIC (E. coli ATCC 25922; ATCC25922, Example 111): 1.3 to 2.5 µM (≈ 1.12 to 2.16 µg/mL); MIC (P. aurginosa ATCC 29248; Example 111): 5 to 10 µM (≈ 4.32 to 8.64 µg/mL); MIC (P. vulgaris ATCC 8427; ATCC8427, Example 111): 5 to 10 µM (≈ 4.32 to 8.64 µg/mL); MIC ([1]; Example 111): 10 to 20 µM (≈ 8.64 to 17.3 µg/mL); MIC (K. pneumoniae ATCC 10031; ATCC10031, Example 111): 0.3 to 0.6 µM (≈ 0.259 to 0.518 µg/mL); MIC (P. aurginosa ATCC 25416; Example 111): 10 to 20 µM (≈ 8.64 to 17.3 µg/mL)
NCC[C@H](O)C(=O)N[C@@H]1C[C@H](N)[C@@H](O[C@H]2O[C@H](CO)[C@@H](O)[C@H](O)[C@H]2N)[C@H](O[C@@H]2O[C@H](CO)[C@@H](O[C@H]3O[C@@H](CN)[C@@H](O)[C@H](O)[C@H]3N)[C@H]2O)[C@H]1O [Compound 67, N-1-haba paromomycin]								20 to 40 (≈ 14.3 to 28.7 µg/mL)	2.5 to 5 (≈ 1.79 to 3.58 µg/mL)	5 to 10 (≈ 3.58 to 7.17 µg/mL)	5 to 10 (≈ 3.58 to 7.17 µg/mL)	2.5 to 5 (≈ 1.79 to 3.58 µg/mL)	0.6 to 1.3 (≈ 0.43 to 0.932 µg/mL)	1.3 to 2.5 (≈ 0.932 to 1.79 µg/mL)							MIC (S. aureus ATCC 13709; ATCC13709, Example 111): 1.3 to 2.5 µM (≈ 0.932 to 1.79 µg/mL); MIC (E. coli ATCC 25922; ATCC25922, Example 111): 5 to 10 µM (≈ 3.58 to 7.17 µg/mL); MIC (P. aurginosa ATCC 29248; Example 111): 5 to 10 µM (≈ 3.58 to 7.17 µg/mL); MIC (S. Aureus; Staphylococcus aureus, Example 107): 1.3 to 2.5 µM (≈ 0.932 to 1.79 µg/mL); MIC (P. vulgaris ATCC 8427; ATCC8427, Example 111): 2.5 to 5 µM (≈ 1.79 to 3.58 µg/mL); MIC (E. Coli; Escherichia coli, Example 107): 5 to 10 µM (≈ 3.58 to 7.17 µg/mL); MIC ([1]; Example 111): 5 to 10 µM (≈ 3.58 to 7.17 µg/mL); MIC (K. pneumoniae ATCC 10031; ATCC10031, Example 111): 0.6 to 1.3 µM (≈ 0.43 to 0.932 µg/mL); MIC (P. aurginosa ATCC 25416; Example 111): 10 to 20 µM (≈ 7.17 to 14.3 µg/mL)
COc1ccc(CCNCCOC2C(OC3C(O)C(N)CC(N)C3OC3OC(CO)C(O)C(O)C3N)OC(CO)C2OC2OC(CN)C(O)C(O)C2N)cc1 (centres unmarked) [Compound 9aj]															<0.6	5 to 10	>40	5 to 10	2.5-5^ uM	1.3 to 2.5	MIC P. aurginosa ATCC 25416 (P. aurginosa ATCC 25416; Example 110): >40 µM
NCC1OC(OC2C(CO)OC(OC3C(O)C(N)CC(N)C3OC3OC(CNCCCc4ccccc4)C(O)C(O)C3N)C2O)C(N)C(O)C1O (centres unmarked) [Compound 15l]	0.2 to 0.3	1.3 to 2.5	>40	>40	10 to 20	0.6 to 1.3	>40														MIC S. Aureus (S. Aureus): 0.3 to 0.6 µM; MIC E. Coli. (E. Coli): 0.6 to 1.2 µM
NCC1OC(OC2C(CO)OC(OC3C(O)C(N)CC(N)C3OC3OC(CO)C(O)C(O)C3N)C2OCCN(CCCc2ccccc2)CCc2ccccc2)C(N)C(O)C1O (centres unmarked) [Compound 9ag]															0.6 to 1.2	10 to 20	>40	10 to 20	10 to 20 µM	2.5 to 5	MIC P. aurginosa ATCC 25416 (P. aurginosa ATCC 25416; Example 110): 10 to 20 µM
NCC1OC(OC2C(CO)OC(OC3C(O)C(N)CC(N)C3OC3OC(CO)C(O)C(O)C3N)C2OCCNCCN2C(=O)c3cccc4cccc(c34)C2=O)C(N)C(O)C1O (centres unmarked) [Compound 9ae]															10 to 20	>40	>40	20 to 40	20 to 40 µM	5 to 10	MIC P. aurginosa ATCC 25416 (P. aurginosa ATCC 25416; Example 110): 5 to 10 µM
NCC1OC(OC2C(CO)OC(OC3C(O)C(N)CC(N)C3OC3OC(CNCCc4ccc(F)cc4)C(O)C(O)C3N)C2O)C(N)C(O)C1O (centres unmarked) [Compound 15o]	0.3 to 0.6	1.3 to 2.5	>40	>40	10 to 20	0.6 to 1.3	>40														MIC S. Aureus (S. Aureus): 0.2 to 0.3 µM; MIC E. Coli. (E. Coli): 0.6 to 1.2 µM
NCCCNCCO[C@H]1[C@H](O[C@@H]2[C@@H](O)[C@H](NC(=O)[C@@H](O)CCN)C[C@H](N)[C@H]2O[C@H]2O[C@H](CO)[C@@H](O)[C@H](O)[C@H]2N)O[C@H](CO)[C@H]1O[C@H]1O[C@@H](CN)[C@@H](O)[C@H](O)[C@H]1N [Compound 46b, N-1-haba-2″-O-(1,3-diamino)ethyl paromomycin]								1.2 to 2.5 (≈ 0.98 to 2.04 µg/mL)	5 to 10 (≈ 4.08 to 8.17 µg/mL)	5 to 10 (≈ 4.08 to 8.17 µg/mL)	5 to 10 (≈ 4.08 to 8.17 µg/mL)	2.5 to 5 (≈ 2.04 to 4.08 µg/mL)	1.3 to 2.5 (≈ 1.06 to 2.04 µg/mL)	1.3 to 2.5 (≈ 1.06 to 2.04 µg/mL)							

— patent US8569264B2, “Antibacterial 4,5-substituted aminoglycoside analogs having multiple substituents” (ISIS Pharmaceuticals, Inc., priority 2005, dated 2013)
